# Measured values from patent US20050054559A1, “Compounds for sustained release of orally delivered drugs” (priority 2000, published 2005).
# Columns and labels:
# [1] = Secretion in bile following oral administration to bile duct-cannulated rats; format: in vivo, rat; conditions: single oral dose of (4) 85.25 mg/kg
# Method: Sustained release of gabapentin from a prodrug that is subject to enterohepatic recirculation requires that a proportion of the intact prodrug be absorbed after oral administration and subsequently secreted into the bile intact. The potential for enterohepatic recirculation of intact (4) was examined in rats with indwelling bile duct fistulae. […] Bile was collected continuously in aliquots over 24 hours. Plasma and bile samples were frozen at −80° C. until analyzed. Concentrations of (4) or gabapentin in plasma samples were deermined by LC/MS/MS as described in Example 38. Concentrations of intact […] in bile were similarly deermined by LC/MS/MS. Bile (20 μL) was diluted 1:1000 with methanol and injected directly onto the HPLC system. Concentrations of (4) in bile reached a maximum at ˜6 hours post-dosing and were sustained up to 24 hours.
# in vivo = conditions: male, Sprague-Dawley, rat, po, 85.25 mg/kg
# Method: (§1) The pharmacokinetics of the prodrug (4) were examined in rats. Three groups of four male Sprague-Dawley rats (approx 200 g) with jugular cannulae each received one of the following treatments: A) a single bolus intravenous injection of gabapentin (25 mg/kg, as a solution in water); B) a single oral dose of gabapentin (25 mg/kg, as a solution in water) administered by oral gavage; C) a single oral dose of (4) (85.25 mg/kg, as a solution in water) administered by oral gavage. Animals were fasted overnight prior to dosing and until 4 hours post-dosing. Serial blood samples were obtained over 24 hours following dosing and blood was processed for plasma by centrifugation. Plasma samples were stored at −80° C. until analyzed. Concentrations of (4) or gabapentin in plasma samples were determined by LC/MS/MS as described in Example 35. Plasma (50 μL) was precipitated by addition of […] of methanol and supernatent was injected directly onto the LC/MS/MS system. The method was linear for gabapentin over the concentration range 0.001 to 20 ng/mL and for (4) over the concentration range 0.01 to 10 ng/mL.
# as §1, with “prodrug Cholyl-Phe-Gabapentin (7g)” for “prodrug (4)”, “of (7g) (103.5” for “of (4) (85.25”, “of (7g)” for “of (4)”, “or (2)” for “or gabapentin”, “described above.” for “described in Example 35.”, “system.” for “system. The method was linear for gabapentin over the concentration range 0.001 to 20 ng/mL and for (4) over the concentration range 0.01 to 10 ng/mL.”
structure (smiles),measurement,setting,value
CC(CCC(=O)NCC1(CC(=O)O)CCCCC1)C1CCC2C3C(O)CC4CC(O)CCC4(C)C3CC(O)C12C (stereo not drawn) [Compound (4)],concentrations of (4) in bile sustained up to,[1]; bile duct-cannulated rats,up to 24 hours
same,time of maximum concentration of (4) in bile,"[1]; bile duct-cannulated rats, post-dosing",~6 h
same,gabapentin in plasma of bile duct-cannulated rats,[1],no gabapentin was detected
same,concentrations of intact (4) in plasma sustained out to,in vivo,24 h
same,half-life,in vivo,> 720 min
same,time of maximum concentration of intact (4) in plasma,in vivo,~8 h
